Patent publication US7524869B2, “Taxanes having a C10 ester substituent” (Florida State University Research Foundation, Inc., priority 2000, dated 2009)

system: HCT116; assay: In vitro cytotoxicity measured by the cell colony formation assay; assay type: cell-based; conditions: HCT116 cells, 72 h drug incubation, colonies counted after 7 days; ID50 = drug concentration producing 50% inhibition of colony formation; read-out: IN VITRO ID 50 (nm) HCT116
Procedure: In Vitro Cytotoxicity Measured by the Cell Colony Formation Assay
Four hundred cells (HCT116) were plated in 60 mm Petri dishes containing 2.7 mL of medium (modified McCoy's 5a medium containing 10% fetal bovine serum and 100 units/mL penicillin and 100 µg/mL streptomycin). The cells were incubated in a CO2 incubator at 37° C. for 5 h for attachment to the bottom of Petri dishes. The compounds identified in Example 2 were made up fresh in medium at ten times the final concentration, and then 0.3 mL of this stock solution was added to the 2.7 mL of medium in the dish. The cells were then incubated with drugs for 72 h at 37° C. At the end of incubation the drug-containing media were decanted, the dishes were rinsed with 4 mL of Hank's Balance Salt Solution (HBSS), 5 mL of fresh medium was added, and the dishes were returned to the incubator for colony formation. The cell colonies were counted using a colony counter after incubation for 7 days.

SMILES | IC50 [nM]
CCOC(=O)N[C@@H](c1ccco1)[C@@H](O)C(=O)O[C@H]1C[C@@]2(O)[C@@H](OC(=O)c3ccccc3)C3[C@](C)(C(=O)[C@H](OC(=O)CC)C(=C1C)C2(C)C)[C@@H](O)C[C@H]1OC[C@@]31OC(C)=O (stereo partly shown) [Compound 3535] | < 1
CCC(=O)O[C@H]1C(=O)[C@@]2(C)C([C@H](OC(=O)c3ccccc3)[C@]3(O)C[C@H](OC(=O)[C@H](O)[C@H](C=C(C)C)NC(=O)OCC(C)C)C(C)=C1C3(C)C)[C@]1(OC(C)=O)CO[C@@H]1C[C@@H]2O (stereo partly shown) [Compound 5065] | < 10
CC(=O)O[C@@]12CO[C@@H]1C[C@H](O)[C@@]1(C)C(=O)[C@H](OC(=O)C(C)C)C3=C(C)[C@@H](OC(=O)[C@H](O)[C@@H](NC(=O)OC(C)(C)C)c4ccco4)C[C@@](O)([C@@H](OC(=O)c4ccccc4)C12)C3(C)C (stereo partly shown) [Compound 2269] | < 1
CC(=O)O[C@@]12CO[C@@H]1C[C@H](O)[C@@]1(C)C(=O)[C@H](OC(=O)C=C(C)C)C3=C(C)[C@@H](OC(=O)[C@H](O)[C@@H](NC(=O)OC(C)(C)C)c4ccoc4)C[C@@](O)([C@@H](OC(=O)c4ccccc4)C12)C3(C)C (stereo partly shown) [Compound 2499] | < 1
CC(=O)OC12COC1CC(O)C1(C)C(=O)C(OC(=O)c3ccco3)C3=C(C)C(OC(=O)C(O)C(NC(=O)OC(C)(C)C)c4cccnc4)CC(O)(C(OC(=O)c4ccccc4)C21)C3(C)C (stereo not shown) [Compound 2124] | < 10
C/C=C/C(=O)N[C@@H](c1ccco1)[C@@H](O)C(=O)O[C@H]1C[C@@]2(O)[C@@H](OC(=O)c3ccccc3)C3[C@](C)(C(=O)[C@H](OC(=O)CC)C(=C1C)C2(C)C)[C@@H](O)C[C@H]1OC[C@@]31OC(C)=O (stereo partly shown) [Compound 3982] | < 1
CC(=O)O[C@@]12CO[C@@H]1C[C@H](O)[C@@]1(C)C(=O)[C@H](OC(=O)C(C)C)C3=C(C)[C@@H](OC(=O)[C@H](O)[C@@H](NC(=O)OC(C)(C)C)c4ccsc4)C[C@@](O)([C@@H](OC(=O)c4ccccc4)C12)C3(C)C (stereo partly shown) [Compound 2291] | < 1
CCCC(=O)O[C@H]1C(=O)[C@@]2(C)C([C@H](OC(=O)c3ccccc3)[C@]3(O)C[C@H](OC(=O)[C@H](O)[C@@H](NC(=O)OCC)c4ccco4)C(C)=C1C3(C)C)[C@]1(OC(C)=O)CO[C@@H]1C[C@@H]2O (stereo partly shown) [Compound 3693] | < 1
CCCC(=O)O[C@H]1C(=O)[C@@]2(C)C([C@H](OC(=O)c3ccccc3)[C@]3(O)C[C@H](OC(=O)[C@H](O)[C@@H](NC(=O)OC(C)C)c4ccco4)C(C)=C1C3(C)C)[C@]1(OC(C)=O)CO[C@@H]1C[C@@H]2O (stereo partly shown) [Compound 3417] | < 1
CC(=O)O[C@@]12CO[C@@H]1C[C@H](O)[C@@]1(C)C(=O)[C@H](OC(=O)C3CC3)C3=C(C)[C@@H](OC(=O)[C@H](O)[C@@H](NC(=O)OC(C)(C)C)c4cccs4)C[C@@](O)([C@@H](OC(=O)c4ccccc4)C12)C3(C)C (stereo partly shown) [Compound 0854] | < 1
CC(=O)O[C@@]12CO[C@@H]1C[C@H](O)[C@@]1(C)C(=O)[C@H](OC(=O)C3CC3)C3=C(C)[C@@H](OC(=O)[C@H](O)[C@@H](NC(=O)c4ccccc4)c4ccccc4)C[C@@](O)([C@@H](OC(=O)c4ccccc4)C12)C3(C)C (stereo partly shown) [Compound 0937] | < 10
CCCC(=O)O[C@H]1C(=O)[C@@]2(C)C([C@H](OC(=O)c3ccccc3)[C@]3(O)C[C@H](OC(=O)[C@H](O)[C@@H](NC(=O)c4ccccc4)C4CC4)C(C)=C1C3(C)C)[C@]1(OC(C)=O)CO[C@@H]1C[C@@H]2O (stereo partly shown) [Compound 3482] | < 1
CCC(=O)O[C@H]1C(=O)[C@@]2(C)C([C@H](OC(=O)c3ccccc3)[C@]3(O)C[C@H](OC(=O)[C@H](O)[C@@H](NC(=O)c4ccccc4)c4ccccn4)C(C)=C1C3(C)C)[C@]1(OC(C)=O)CO[C@@H]1C[C@@H]2O (stereo partly shown) [Compound 0634] | < 10
C/C=C/C(=O)O[C@H]1C(=O)[C@@]2(C)C([C@H](OC(=O)c3ccccc3)[C@]3(O)C[C@H](OC(=O)[C@H](O)[C@@H](NC(=O)OC(C)(C)C)c4ccccn4)C(C)=C1C3(C)C)[C@]1(OC(C)=O)CO[C@@H]1C[C@@H]2O (stereo partly shown) [Compound 2348] | < 1
CCCC(=O)O[C@H]1C(=O)[C@@]2(C)C([C@H](OC(=O)c3ccccc3)[C@]3(O)C[C@H](OC(=O)[C@H](O)[C@@H](NC(=O)OC(C)(C)C)c4cccs4)C(C)=C1C3(C)C)[C@]1(OC(C)=O)CO[C@@H]1C[C@@H]2O (stereo partly shown) [Compound 1003] | < 1
CCC(=O)O[C@H]1C(=O)[C@@]2(C)C([C@H](OC(=O)c3ccccc3)[C@]3(O)C[C@H](OC(=O)[C@H](O)[C@@H](NC(=O)C=C(C)C)c4cccs4)C(C)=C1C3(C)C)[C@]1(OC(C)=O)CO[C@@H]1C[C@@H]2O (stereo partly shown) [Compound 4335] | < 1
CC(=O)OC12COC1CC(O)C1(C)C(=O)C(OC(=O)c3ccco3)C3=C(C)C(OC(=O)C(O)C(NC(=O)OC(C)(C)C)c4ccco4)CC(O)(C(OC(=O)c4ccccc4)C21)C3(C)C (stereo not shown) [Compound 2142] | < 1

SMILES | IC50 [nM]
CCC(=O)O[C@H]1C(=O)[C@@]2(C)C([C@H](OC(=O)c3ccccc3)[C@]3(O)C[C@H](OC(=O)[C@H](O)[C@H](C=C(C)C)NC(=O)c4ccccc4)C(C)=C1C3(C)C)[C@]1(OC(C)=O)CO[C@@H]1C[C@@H]2O (stereo partly shown) [Compound 0625] | < 1
CC(=O)O[C@@]12CO[C@@H]1C[C@H](O)[C@@]1(C)C(=O)[C@H](OC(=O)C3CC3)C3=C(C)[C@@H](OC(=O)[C@H](O)[C@@H](NC(=O)c4ccccc4)c4ccncc4)C[C@@](O)([C@@H](OC(=O)c4ccccc4)C12)C3(C)C (stereo partly shown) [Compound 2855] | < 1
CC(=O)O[C@@]12CO[C@@H]1C[C@H](O)[C@@]1(C)C(=O)[C@H](OC(=O)C3CC3)C3=C(C)[C@@H](OC(=O)[C@H](O)[C@@H](NC(=O)OC(C)(C)C)c4ccncc4)C[C@@](O)([C@@H](OC(=O)c4ccccc4)C12)C3(C)C (stereo partly shown) [Compound 2813] | < 1
CC(=O)O[C@@]12CO[C@@H]1C[C@H](O)[C@@]1(C)C(=O)[C@H](OC(=O)C(C)C)C3=C(C)[C@@H](OC(=O)[C@H](O)[C@@H](NC(=O)OC(C)(C)C)c4cccs4)C[C@@](O)([C@@H](OC(=O)c4ccccc4)C12)C3(C)C (stereo partly shown) [Compound 2287] | < 1
CCC(=O)O[C@H]1C(=O)[C@@]2(C)C([C@H](OC(=O)c3ccccc3)[C@]3(O)C[C@H](OC(=O)[C@H](O)[C@@H](NC(=O)c4ccccc4)c4ccncc4)C(C)=C1C3(C)C)[C@]1(OC(C)=O)CO[C@@H]1C[C@@H]2O (stereo partly shown) [Compound 0659] | < 1
CCC(=O)O[C@H]1C(=O)[C@@]2(C)C([C@H](OC(=O)c3ccccc3)[C@]3(O)C[C@H](OC(=O)[C@H](O)[C@@H](NC(=O)c4cccs4)c4ccco4)C(C)=C1C3(C)C)[C@]1(OC(C)=O)CO[C@@H]1C[C@@H]2O (stereo partly shown) [Compound 3644] | < 1
CC(=O)O[C@@]12CO[C@@H]1C[C@H](O)[C@@]1(C)C(=O)[C@H](OC(=O)C3CC3)C3=C(C)[C@@H](OC(=O)[C@H](O)[C@@H](NC(=O)c4ccco4)c4cccs4)C[C@@](O)([C@@H](OC(=O)c4ccccc4)C12)C3(C)C (stereo partly shown) [Compound 3297] | < 1
CCCC(=O)O[C@H]1C(=O)[C@@]2(C)C([C@H](OC(=O)c3ccccc3)[C@]3(O)C[C@H](OC(=O)[C@H](O)[C@@H](NC(=O)OCC(C)C)C4CC4)C(C)=C1C3(C)C)[C@]1(OC(C)=O)CO[C@@H]1C[C@@H]2O (stereo partly shown) [Compound 4808] | < 10
CC(=O)O[C@@]12CO[C@@H]1C[C@H](O)[C@@]1(C)C(=O)[C@H](OC(=O)C3CC3)C3=C(C)[C@@H](OC(=O)[C@H](O)[C@@H](NC(=O)c4cccs4)c4ccco4)C[C@@](O)([C@@H](OC(=O)c4ccccc4)C12)C3(C)C (stereo partly shown) [Compound 3663] | < 1
CC(=O)OC12COC1CC(O)C1(C)C(=O)C(OC(=O)c3ccco3)C3=C(C)C(OC(=O)C(O)C(NC(=O)OC(C)(C)C)c4ccoc4)CC(O)(C(OC(=O)c4ccccc4)C21)C3(C)C (stereo not shown) [Compound 2159] | < 1
CC(=O)O[C@@]12CO[C@@H]1C[C@H](O)[C@@]1(C)C(=O)[C@H](OC(=O)C(C)C)C3=C(C)[C@@H](OC(=O)[C@H](O)[C@@H](NC(=O)OC(C)(C)C)c4ccc([N+](=O)[O-])cc4)C[C@@](O)([C@@H](OC(=O)c4ccccc4)C12)C3(C)C (stereo partly shown) [Compound 2320] | < 1
CC(=O)OC12COC1CC(O)C1(C)C(=O)C(OC(=O)c3cccs3)C3=C(C)C(OC(=O)C(O)C(NC(=O)OC(C)(C)C)c4ccco4)CC(O)(C(OC(=O)c4ccccc4)C21)C3(C)C (stereo not shown) [Compound 1892] | < 1
CC(=O)O[C@@]12CO[C@@H]1C[C@H](O)[C@@]1(C)C(=O)[C@H](OC(=O)C=C(C)C)C3=C(C)[C@@H](OC(=O)[C@H](O)[C@@H](NC(=O)OC(C)(C)C)c4ccncc4)C[C@@](O)([C@@H](OC(=O)c4ccccc4)C12)C3(C)C (stereo partly shown) [Compound 2472] | < 1
CCCC(=O)OC1C(=O)C2(C)C(O)CC3OCC3(OC(C)=O)C2C(OC(=O)c2ccccc2)C2(O)CC(OC(=O)C(O)C(NC(=O)OC(C)(C)C)C3CCC3)C(C)=C1C2(C)C (stereo not shown) [Compound 1044] | < 1
CC(=O)OC12COC1CC(O)C1(C)C(=O)C(OC(=O)c3ccco3)C3=C(C)C(OC(=O)C(O)C(NC(=O)OC(C)(C)C)c4ccccc4)CC(O)(C(OC(=O)c4ccccc4)C21)C3(C)C (stereo not shown) [Compound 2212] | < 10
CCCC(=O)O[C@H]1C(=O)[C@@]2(C)C([C@H](OC(=O)c3ccccc3)[C@]3(O)C[C@H](OC(=O)[C@H](O)[C@H](C=C(C)C)NC(=O)OCC(C)C)C(C)=C1C3(C)C)[C@]1(OC(C)=O)CO[C@@H]1C[C@@H]2O (stereo partly shown) [Compound 5144] | < 10
CCC(=O)O[C@H]1C(=O)[C@@]2(C)C([C@H](OC(=O)c3ccccc3)[C@]3(O)C[C@H](OC(=O)[C@H](O)[C@@H](NC(=O)OC(C)(C)C)c4ccoc4)C(C)=C1C3(C)C)[C@]1(OC(C)=O)CO[C@@H]1C[C@@H]2O (stereo partly shown) [Compound 5495] | < 1
